The values that follow are results of earlier work, collected in patent US12564579B2, “Topical formulations of (1S)-1-phenyl-2-pyridin-2-ylethanamine” (priority 2020, dated 2026).

For the series the following is noted: clinical trials.

Regarding `N[C@@H](Cc1ccccn1)c1ccccc1` [Lanicemine, (1S)-1-phenyl-2-pyridin-2-ylethanamine], the psychotomimetic side effects entry is “little or no psychotomimetic side effects”. The study endpoints entry (development terminated by sponsor) was “did not meet study endpoints”.
